# Molecular target: T1, human wild-type (WT)-pendrin (Homo sapiens, UniProt O43511)
# T1 construct: expressed in transfected cells
# T1 sequence (O43511 1-780): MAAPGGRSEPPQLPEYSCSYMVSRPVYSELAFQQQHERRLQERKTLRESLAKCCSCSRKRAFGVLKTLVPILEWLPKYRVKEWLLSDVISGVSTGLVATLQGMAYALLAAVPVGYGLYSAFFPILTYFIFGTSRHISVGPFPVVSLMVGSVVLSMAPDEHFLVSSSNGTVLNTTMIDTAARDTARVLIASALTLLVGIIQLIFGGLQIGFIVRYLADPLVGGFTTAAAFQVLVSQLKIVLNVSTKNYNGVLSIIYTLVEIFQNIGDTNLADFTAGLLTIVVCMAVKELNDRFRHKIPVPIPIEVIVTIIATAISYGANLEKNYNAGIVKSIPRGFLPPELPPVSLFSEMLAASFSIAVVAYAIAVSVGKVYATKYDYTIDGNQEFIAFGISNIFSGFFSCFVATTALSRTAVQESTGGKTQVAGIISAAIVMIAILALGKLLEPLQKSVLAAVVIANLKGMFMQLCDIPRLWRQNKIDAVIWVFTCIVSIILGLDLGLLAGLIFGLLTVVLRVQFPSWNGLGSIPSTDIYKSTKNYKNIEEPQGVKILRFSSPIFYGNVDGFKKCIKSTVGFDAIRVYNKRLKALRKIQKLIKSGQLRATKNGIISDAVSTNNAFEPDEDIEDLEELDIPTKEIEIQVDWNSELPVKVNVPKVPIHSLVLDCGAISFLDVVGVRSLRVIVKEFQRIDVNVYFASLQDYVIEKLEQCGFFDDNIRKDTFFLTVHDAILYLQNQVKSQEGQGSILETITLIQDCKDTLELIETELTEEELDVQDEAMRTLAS
# Assay: Pendrin-mediated Cl^−/I^− exchange activity, YFP fluorescence in CHO-K1 cells
# Type: cell-based
# Conditions: 30 μM
row,SMILES,Pendrin inhibitory activity at 30 μM (%)
1,"O=C(O)C(=Cc1ccco1)NC(=O)c1ccc(Br)cc1 [G16, 2-(4-Bromobenzamido)-3-(furan-2-yl)acrylate]",1.8
2,"Cc1ncsc1C=C(NC(=O)c1ccc(C(C)(C)C)cc1)C(=O)O [G32, 2-(4-(tert-butyl)benzamido)-3-(4-methylthiazol-5-yl)acrylate]",2.1
3,"O=C(O)C(=Cc1ccco1)NC(=O)c1ccc(Br)cc1 [G21, 2-(4-Bromobenzamido)-3-(furan-2-yl)acrylate]",4.1

# Same assay, conditions: CHO-K1, 30 μM; read-out: Pendrin inhibitory activity at 30 μM (%)
row,SMILES,inhibition at 30 µM [%]
1,"O=C1OC(c2ccccc2)=NC1=C1C=C(c2ccccc2)SC(c2ccccc2)=C1 [F85, 4-(2,6-Diphenyl-4H-thiopyran-4-ylidene)-2-phenyloxazol-5(4H)-one]",2.9
2,"COc1cc(C2=NC(=Cc3cccs3)C(=O)O2)ccc1OC(F)F [F102, 2-(4-(Difluoromethoxy)-3-methoxyphenyl)-4-(thiophen-2-ylmethylene)oxazol-5 (4H)-one]",2.7
3,"CCCCOc1ccc(C2=NC(=Cc3ccc[nH]3)C(=O)O2)cc1 [F138, 4-((1H-pyrrol-2-yl)methylene)-2-(4-butoxyphenyl)oxazol-5 (4H)-one]",2.7
4,"CCCc1ccc(C2=NC(=Cc3ccsc3)C(=O)O2)cc1 [F145, 2-(4-Propylphenyl)-4-(thiophen-3-ylmethylene)oxazol-5 (4H)-one]",20.8
5,"CCc1sc(C2=NC(=Cc3cccs3)C(=O)O2)cc1C [F103, 2-(5-Ethyl-4-methylthiophen-2-yl)-4-(thiophen-2-ylmethylene)oxazol-5(4H)-one]",3.7
6,"CC(C)c1ccc(C2=NC(=Cc3cccs3)C(=O)O2)cc1 [F46, 2-(4-Isopropylphenyl)-4-(thiophen-2-ylmethylene)oxazol-5(4H)-one]",53.8
7,"CC(C)(C)c1ccc(C2=NC(=Cc3ccccc3)C(=O)O2)cc1 [F44, 4-Benzylidene-2-(4-(tert-butyl)phenyl)oxazol-5 (4H)-one]",3.5
8,"O=C1OC(c2ccccc2I)=NC1=Cc1ccc(-n2cncn2)cc1 [F132, 4-(4-(1H-1,2,4-thiazol-1-yl)benzylidene)-2-(2-iodophenyl)oxazol-5(4H)-one]",3.9
9,"Cc1ncsc1C=C(NC(=O)c1ccc(C(C)(C)C)cc1)C(=O)O [G9, 2-(4-(tert-butyl)benzamido)-3-(4-methylthiazol-5-yl)acrylate]",3.9
10,"O=C(O)C(=Cc1cccs1)NC(=O)c1ccc2c(c1)CCC2 [G38, 2-(2,3-Dihydro-1H-indene-5-carboxamido)-3-(thiophen-2-yl)acrylate]",2.5
11,"CC(C)c1ccc(C2=NC(=Cc3ccc[nH]3)C(=O)O2)cc1 [F12, 4-((1H-pyrrol-2-yl)methylene)-2-(4-isopropylphenyl)oxazol-5(4H)-one]",100
12,"CCCc1ccc(C2=NC(=Cc3scnc3C)C(=O)O2)cc1 [F137, 4-((4-Methylthiazol-5-yl)methylene)-2-(4-propylphenyl)oxazol-5(4H)-one]",3.1
13,"O=C1OC(c2ccc(C(F)(F)F)cc2)=NC1=Cc1ccc[nH]1 [F17, 4-((1H-pyrrol-2-yl)methylene)-2-(4-(trifluoromethyl)phenyl)oxazol-5(4H)-one]",6.9
14,"O=C1OC(c2ccc(N3CCCC3=O)cc2)=NC1=Cc1cccs1 [F98, 2-(4-(2-oxopyrrolidin-1-yl)phenyl)-4-(thiophen-2-ylmethylene)oxazol-5 (4H)-one]",3.3
15,"COc1ccccc1C1=NC(=Cc2cccs2)C(=O)O1 [F34, 2-(2-Methoxyphenyl)-4-(thiophen-2-ylmethylene)oxazol-5 (4H)-one]",82.8
16,"O=C1OC(c2ccc3ccccc3c2)=NC1=Cc1cnn(Cc2ccccc2Cl)c1 [F123, 4-((1-(2-Chlorobenzyl)-1H-pyrazol-4-yl)methylene)-2-(naphthalen-2-yl)oxazol-5 (4H)-one]",2.4

# Same assay, conditions: compounds showing pendrin inhibitory activity of 50% or more at 30 μM; read-out: IC50
row,SMILES,IC50 [µM]
1,"CC(C)c1ccc(C2=NC(=Cc3cccs3)C(=O)O2)cc1 [F46, 2-(4-Isopropylphenyl)-4-(thiophen-2-ylmethylene)oxazol-5(4H)-one]",22.7 ± 2.48
2,"CC(C)c1ccc(C2=NC(=Cc3ccc[nH]3)C(=O)O2)cc1 [F12, 4-((1H-pyrrol-2-yl)methylene)-2-(4-isopropylphenyl)oxazol-5(4H)-one]",1 ± 0.15
3,"COc1ccccc1C1=NC(=Cc2cccs2)C(=O)O1 [F34, 2-(2-Methoxyphenyl)-4-(thiophen-2-ylmethylene)oxazol-5 (4H)-one]",8.6 ± 0.84

# — patent publication US12691101B2, “Compound and method for preventing or treating of respiratory diseases comprising the same as an active ingredient” (YONSEI UNIVERSITY, UNIVERSITY - INDUSTRY FOUNDATION (UIF), priority 2019, dated 2026)
